# Like-named read-outs stand apart in the source and are kept apart here.
# Key:
# colorectal cancer = conditions: cited from earlier work
# HT1376 = experiment: Crystal violet nuclear staining assay, bladder cancer cell line HT1376; format: cell-based; conditions: 2.5 μg/ml erlotinib, 96 h
# Text: (§1) It is known that 40-60% of bladder cancers over-express EGFR which provides an opportunity for targeted therapy.
# BL-17/0/X1 = experiment: Crystal violet nuclear staining assay, bladder cancer cell line BL-17/0/X1; format: cell-based; conditions: 2.5 μg/ml erlotinib, 96 h
# Text: as §1
# MGHU3 = experiment: Crystal violet nuclear staining assay, bladder cancer cell line MGHU3; format: cell-based; conditions: 2.5 μg/ml erlotinib, 96 h
# Text: as §1
# BL-17/2 = experiment: Crystal violet nuclear staining assay, bladder cancer cell line BL-17/2; format: cell-based; conditions: 2.5 μg/ml erlotinib, 96 h
# Text: as §1
# [1] = test system: bladder cancer cell lines; conditions: 10 μg/ml erlotinib; 8 of 9 cell lines
# Description: Three different experimental schedules were performed: Single drug exposure over a range of concentrations of erlotinib, combination with IFN-α, and pre-treatment with IFN-α followed by erlotinib combined with IFN-α.
# Cells were grown in 24-well plates and the antiproliferative effect was measured by crystal violet nuclear staining assay.
# HER1/EGFR = experiment: Cell-surface HER1/EGFR expression by immunofluorescent flow cytometry after IFNα treatment; format: cell-based, human; conditions: IFNα 100 IU/mL
# Description: The cell-surface HER1/EGFR levels at 72 h and 96 h of culture, with or without IFN-α (50 or 100 IU/ml), were measured by immunofluorescent flow cytometry. Cells were seeded in 60×15 mm dishes (FALCON™, BD) and treated with 100 IU/mL of IFN-α. The treated and untreated cells were harvested at different time intervals using 0.02% EDTA in PBS, then washed twice with ice-cold PBS and counted. The mouse monoclonal antibody against the extracellular domain of human HER1/EGFR (Catlog No: MO886, DAKO) diluted 1 in 100 in PBS was added to the cells (1×10^6 cells in 100 μL volume), while an irrelevant IgG 2b was used as the isotype-matched antibody control. After 60 min on ice, cells were washed and incubated with 100 μL of fluorescein-isothiocyanate (FITC)-conjugated goat-anti-mouse IgG (Catlog No: 81-6511, ZYMED), 1 in 200 dilution in PBS, on ice for 30 min in the dark. The cells were then washed again twice and resuspended in 1% formaldehyde in PBS. Cell surface immunofluorescence was analysed on a FACSCalibur (BD) using CELLQuest software equipped with a 5 W argon ion laser tuned to 488 nm at 200 mW. Levels of protein expression were estimated as the geometric mean of fluorescence intensity (MFI) of anti-HER1/EGFR minus that of the isotype-matched antibody control. Ten thousand singlet and viable cells of the individual treated and control samples were measured. Duplicate experiments with triplicate samples were performed for all cells.
# Cell-surface HER1/EGFR expression by untreated cell lines: All cell lines were measured first to obtain an untreated level of HER1/EGFR. Cells were harvested after 72 h of culture and measured by flow cytometry. The HER1/EGFR value was calculated as the geometric mean fluorescence intensity of anti-HER1/EGFR detection minus that of isotype control. SW620 cells were HER1/EGFR-negative. Other cell lines including DLD-1, HCT116, HT29, KM12SM, LIM2099, LIM2408, LOVO and SW480 all positively expressed HER1/EGFR.
# The relationship between HER1/EGFR expression and IFNα treatment was assessed in all cell lines. Cells were all cultured with or without 100 IU/mL of IFNα (which mimics serum levels in humans given subcutaneous interferon (Robinson S. P., et al. (1990) Breast Cancer Res. Treat.; 5:95-101) for 72 and 96 h. The cell-surface HER1/EGFR expression at 72 h of culture from untreated and treated groups of individual cell lines detected using anti-HER1/EGFR antibody minus isotype control is shown in FIG. 1. IFNα treatment was associated with significant up-regulation of cell-surface HER1/EGFR expression in 7 of 8 HER1/EGFR-positive cell lines, including DLD-1 (HER1/EGFR level (mean plus/minus standard deviation of the mean) treated versus that untreated: 17.89+0.60/10.86+0.51, paired t test, p=0.005; 95% confidence interval of the difference: 4.88−9.16), HCT116 (22.75+0.79/7.80+0.22, p<0.001; 13.52−16.36), HT29 (11.12+0.20/8.58+0.24, p=0.004; 1.82−3.27), LIM2099 (22.19+0.56/12.82+0.52, p=0.001; 7.87−10.86), LIM2408 (22.93+0.53/10.77+0.21, p=0.001; 10.35−13.97), LOVO (14.77+0.34/8.12+0.25, p=0.003; 5.2−8.1), and SW480 (27.09+0.76/14.10+0.33, p=0.002; 10.66−15.32) cells. In contrast, HER1/EGFR expression levels were not increased in KM12SM cells after IFNα treatment. […] Consistently, at 96 h of culture the cell-surface HER1/EGFR expression from untreated and treated groups of individual cell lines followed the same trend. Since up-regulation of HER1/EGFR expression was sustained between 72 and 96 h, we thus chose 72 h for IFNα pretreatment and 96 h for combination treatment introduced below.
compound,measurement,setting,value
O=c1[nH]cc(F)c(=O)[nH]1 [5-fluorouracil],response rates,"colorectal cancer; single-agent treatment, advanced colorectal cancer",about 10%
"C#Cc1cccc(Nc2ncnc3cc(OCCOC)c(OCCOC)cc23)c1 [erlotinib, [6,7-bis(2-methoxyethoxy)-4-quinazolin-4-yl]-(3-ethynylphenyl)amine]",growth rate of control cells,HT1376,< 60%
same,growth rate of control cells,BL-17/0/X1,< 60%
same,growth rate of control cells,MGHU3,< 60%
same,growth rate of control cells,BL-17/2,< 60%
same,growth rate of control,[1],< 60%
O=C1[O][Pt]2([NH][C@@H]3CCCC[C@H]3[NH]2)[O]C1=O [oxaliplatin],response rates,"colorectal cancer; combined with 5-FU and leucovorin, first-line treatment for colorectal cancer",25-40%
IFNα,"HER1/EGFR level (geometric mean fluorescence intensity minus isotype control), treated","HER1/EGFR; DLD-1 cells, 72 h, mean plus/minus SD",17.89 ± 0.60
same,"HER1/EGFR level (geometric mean fluorescence intensity minus isotype control), treated","HER1/EGFR; HCT116 cells, 72 h, mean plus/minus SD",22.75 ± 0.79
same,Induction of HER1/EGFR expression by IFNα treatment,"HER1/EGFR; HER1/EGFR-negative SW620 cells, 72 h",unable to induce HER1/EGFR expression
same,"HER1/EGFR level (geometric mean fluorescence intensity minus isotype control), treated","HER1/EGFR; HT29 cells, 72 h, mean plus/minus SD",11.12 ± 0.20
same,HER1/EGFR expression levels after IFNα treatment,"HER1/EGFR; KM12SM cells, 72 h",not increased
same,"HER1/EGFR level (geometric mean fluorescence intensity minus isotype control), treated","HER1/EGFR; LIM2099 cells, 72 h, mean plus/minus SD",22.19 ± 0.56
same,"HER1/EGFR level (geometric mean fluorescence intensity minus isotype control), treated","HER1/EGFR; LIM2408 cells, 72 h, mean plus/minus SD",22.93 ± 0.53
same,"HER1/EGFR level (geometric mean fluorescence intensity minus isotype control), treated","HER1/EGFR; LOVO cells, mean plus/minus SD (FIG. 1: LOVO measured at 24 h)",14.77 ± 0.34
same,"HER1/EGFR level (geometric mean fluorescence intensity minus isotype control), treated","HER1/EGFR; SW480 cells, 72 h, mean plus/minus SD",27.09 ± 0.76

# Reference: patent US20060134064A1, “Combined treatment with interferon-alpha and an epidermal growth factor receptor kinase inhibitor” (priority 2004, published 2006)
